Our source for the IC50 and Stability values is patent US10300026B2, “Use of dihydroxyacetone in preparation of anti-cancer medicaments” (priority 2015, dated 2019).

The test system of one series is TF1-α. Description: CellTiter-Glo cell viability, TF1-α (human erythroleukemia cell). It counts as cell-based. Here is the method:
(§1) 15 g of the commercially available 1,3-dihydroxyacetone in the solid powder form was added into 100 mL of 5% glucose (infusion bottle), then filled into 100 bottles.
(§2) After digesting the cells and counting (counting suspended cells directly), the cells were diluted to 1.25×10^5 cells/ml, inoculated into a 384-well plate (5000 cells/well) with 40 μl per well, centrifuged at 1500 rpm for 1 min, placed into the incubator and incubated overnight.
(§3) The medicaments were diluted in gradient with a 5% glucose solution to 5×, respectively. Each well was dosed with 10 μl medicament, with 4 wells (n=4) for each concentration. The cell viability was measured with Luminescence Cell Viability Assay kit after incubating for 72 hours in an incubator.
(§4) CellTiter-Glo reagent was added into each well, the volume of which is the same as that of medium. It was shaked on a shaker for 5 min, centrifuged at 1500 rpm for 1 min, and incubated in the dark at room temperature for 15 min. Then the chemiluminescence was detected with BMG PHERAstar.
(§5) The cell viability was calculated by using the following formula: Cell viability (Viability %)=100%×(LUMsample to be measured−LUMblank)/(LUMsolvent control−LUMblank)
(§6) The curve of Log[concentration] versus cell viability was fitted using Prism 6 to calculate IC50 of sample for each cell line.
On the technique in general: Cellular ATP, detected with luciferase, serves as a proxy for viable cell number.

The next series relates to FaDu. Description: CellTiter-Glo cell viability, FaDu (human pharyngeal squamous cell). It counts as cell-based. Here is the method: as §1, §2, §3, §4, §5, §6
A further series has as its system C-33A. Description: CellTiter-Glo cell viability, C-33A (human cervical cancer cell). It counts as cell-based. On the procedure:
as §1, §2, §3, §4, §5, §6

A further series concerns SGC7901. Description: CellTiter-Glo cell viability, SGC7901 (human gastric adenocarcinoma cell). It counts as cell-based. Here is the method:
as §1, §2, §3, §4, §5, §6

The subject of a further series is A431. Description: CellTiter-Glo cell viability, A431 (human cutaneous squamous cell carcinoma). It counts as cell-based. Here is the method:
as §1, §2, §3, §4, §5, §6

Another series has as its system SW480. Put plainly: CellTiter-Glo cell viability, SW480 (human colorectal cancer cell). It counts as cell-based. Here is the method: as §1, §2, §3, §4, §5, §6
Another series deals with A2780. Description: CellTiter-Glo cell viability, A2780 (human ovarian cancer cell line). The format is cell-based. On the procedure:
as §1, §2, §3, §4, §5, §6

The next series has as its system Jurkat. Description: CellTiter-Glo cell viability, Jurkat (human T lymphoblastic leukemia cell). It counts as cell-based. Here is the method: as §1, §2, §3, §4, §5, §6
For a further series, the system named is HCT116. Description: CellTiter-Glo cell viability, HCT116 (human colon cancer cell). The format is cell-based. Here is the method: as §1, §2, §3, §4, §5, §6
The next series deals with SMMC-7721. Description: CellTiter-Glo cell viability, SMMC-7721 (human hepatoma cell line). It counts as cell-based. Here is the method:
as §1, §2, §3, §4, §5, §6

A further series relates to HepG2. Put plainly: CellTiter-Glo cell viability, HepG2 (human hepatoma cell line). The format is cell-based. Here is the method: as §1, §2, §3, §4, §5, §6
The subject of the next series is KB. Put plainly: CellTiter-Glo cell viability, KB (human oral cancer cell line). It counts as cell-based. Here is the method:
as §1, §2, §3, §4, §5, §6

For series [1] the following is noted: at pH 6.0; cited from earlier work.
For the next series, the system named is MDA-MB-231. Description: CellTiter-Glo cell viability, MDA-MB-231 (human breast cancer cell). The conditions noted are these: 72 hours, n=4, read-out: IC50 calculated based on the concentration of dihydroxyacetone. On the procedure:
as §1, §2, §3, §4, §5, §6

Where [2] appears, read: Homo sapiens, 72 h, read-out: IC50 calculated based on the concentration of dihydroxyacetone.

Read-outs that look alike come from different tables or passages of the source.

Regarding `N.N.[Cl][Pt][Cl]` [DDP, cis-diammine platinum dichloride, reference compound], the IC50 came out at 0.00376 mM in the series with TF1-α (TF1-α, 72 hours, n=4, read-out: IC50); 0.0115 mM with FaDu (72 hours, n=4, read-out: IC50); 0.00285 mM with C-33A (C-33A, 72 hours, n=4, read-out: IC50); 0.024 mM with SGC7901 (SGC7901, 72 hours, n=4, read-out: IC50); 0.00929 mM with A431 (A431, 72 hours, n=4, read-out: IC50); 0.0167 mM with SW480 (SW480, 72 hours, n=4, read-out: IC50). The IC50 in the series with A2780 (A2780, 72 hours, n=4, read-out: IC50) was determined as 0.0322 mM; in the series on Jurkat (72 hours, n=4, read-out: IC50), 0.00066 mM; with HCT116 (HCT116, 72 hours, n=4, read-out: IC50), 0.0229 mM; in the series on SMMC-7721 (SMMC-7721, 72 hours, n=4, read-out: IC50), 0.00619 mM; with HepG2 (HepG2, 72 hours, n=4, read-out: IC50), 0.0139 mM; in the series on KB (72 hours, n=4, read-out: IC50), 0.002 mM.
Take `O=C(CO)CO` [Dihydroxyacetone, 1,3-dihydroxyacetone]: the IC50 was 4.89 mM in the series on TF1-α (Homo sapiens, TF-1, 72 h, read-out: IC50 calculated based on the concentration of dihydroxyacetone); 9.42 mM in the series with FaDu (setting [2]); 5.09 mM with C-33A (Homo sapiens, C-33-A, 72 h, read-out: IC50 calculated based on the concentration of dihydroxyacetone); 3.74 mM in the series with SGC7901 (Homo sapiens, SGC-7901, 72 h, read-out: IC50 calculated based on the concentration of dihydroxyacetone); 5.64 mM in the series on A431 (Homo sapiens, A-431, 72 h, read-out: IC50 calculated based on the concentration of dihydroxyacetone); 7.95 mM in the series on SW480 (Homo sapiens, SW480, 72 h, read-out: IC50 calculated based on the concentration of dihydroxyacetone). For the same molecule, the IC50 in the series with A2780 (Homo sapiens, A2780, 72 h, read-out: IC50 calculated based on the concentration of dihydroxyacetone) is 10.6 mM; in the series on Jurkat (setting [2]), 1.83 mM; in the series on HCT116 (Homo sapiens, HCT-116, 72 h, read-out: IC50 calculated based on the concentration of dihydroxyacetone), 6.82 mM; with SMMC-7721 (Homo sapiens, SMMC-7721, 72 h, read-out: IC50 calculated based on the concentration of dihydroxyacetone), 5.09 mM; in the series on MDA-MB-231, 7.95 mM; in the series on HepG2 (Homo sapiens, HepG2, 72 h, read-out: IC50 calculated based on the concentration of dihydroxyacetone) it was 12.1 mM. In addition, the IC50 with KB (setting [2]) is 7.51 mM. For the same molecule, the Stability result in [1] is “stable”.
